These results are taken from patent US9044420B2, “Immunogenic compositions and methods of using the compositions for inducing humoral and cellular immune responses” (IMMUNE DESIGN CORP., priority 2011, dated 2015).

Experiment [1] deals with Splenic CD4 T cell responses (SIV-Gag DD13 epitope). The experiment is described as follows: Splenic CD4 T cell responses by ICS after SIV-Gag protein with or without GLA-SE (Example 8). The experiment is classed as in vivo, C57BL/6 mice. As to conditions: 5 μg SIV-Gag protein + 5 μg GLA-SE vs SE alone or PBS, i.m. d0/d21, day 5 post-boost. How it is done: C57BL/6 mice (4 per group) were immunized intramuscularly via a prime/boost immunization regimen (d0 prime/d21 boost) with 5 μg of recombinant SIV-Gag protein+5 μg of GLA-SE, SE alone, or PBS. Splenic CD4 T cell responses were measured on day 5 post-boost by ICS for IFN-γ, TNF-α, and IL-2 after ex vivo re-stimulation with SIV-Gag CD4 T cell epitope containing peptide DD13 (amino acids 299-311 of SIV-GAG; DRFYKSLRAEQTD; SEQ ID NO: 45)

Experiment [2] has as its system HSV. As to conditions: continuous suppressive administration, early intervention; Corey et al. 2004; cited from earlier work.

On to `CCCCCCCCCCCCCC(=O)O[C@H](CCCCCCCCCCC)CC(=O)O[C@@H]1[C@@H](NC(=O)C[C@H](CCCCCCCCCCC)OC(=O)CCCCCCCCCCCCC)[C@H](OC[C@H]2O[C@H](O)[C@H](NC(=O)C[C@H](O)CCCCCCCCCCC)[C@@H](OC(=O)C[C@H](O)CCCCCCCCCCC)[C@@H]2O)O[C@H](CO)[C@H]1OP(=O)(O)O` [GLA, glucopyranosyl lipid A], for which the “Th1 CD4 T cell response after immunization with SIV-Gag recombinant protein” value in experiment [1] was “required for a robust Th1 CD4 T cell response”.
As to `CC(C)[C@H](N)C(=O)OCCOCn1cnc2c(=O)[nH]c(N)nc21` [Valacyclovir], the “reduction of HSV transmission” value in experiment [2] was “less than 50%”.
